Values quoted from earlier work as cited in patent publication US20090062246A1, “THERAPEUTIC TREATMENT-014” (ASTRAZENECA AB, priority 2007, published 2009).

Target: T1, ETB receptor (Homo sapiens, UniProt P24530)
T1 sequence (P24530 27-442): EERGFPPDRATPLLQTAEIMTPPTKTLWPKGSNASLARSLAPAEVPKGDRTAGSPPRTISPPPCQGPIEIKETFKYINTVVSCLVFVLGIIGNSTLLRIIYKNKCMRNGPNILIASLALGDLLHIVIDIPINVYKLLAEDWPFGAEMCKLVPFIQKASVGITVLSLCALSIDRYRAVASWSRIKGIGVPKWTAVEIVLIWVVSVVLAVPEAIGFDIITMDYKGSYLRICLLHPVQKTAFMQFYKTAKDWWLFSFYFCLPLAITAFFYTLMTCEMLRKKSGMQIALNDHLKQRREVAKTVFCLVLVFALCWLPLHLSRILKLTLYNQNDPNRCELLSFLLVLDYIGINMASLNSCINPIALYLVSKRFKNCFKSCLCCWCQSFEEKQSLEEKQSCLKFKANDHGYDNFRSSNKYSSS
Details: described in WO04/018044

affinity for the ETB receptor: no measurable affinity
Compound: COc1nc(C)cnc1NS(=O)(=O)c1cccnc1-c1ccc(-c2nnco2)cc1 [Compound (I), N-(3-methoxy-5-methylpyrazin-2-yl)-2-(4-[1,3,4-oxadiazol-2-yl]phenyl)pyridine-3-sulphonamide]
